Read-outs that look alike come from different tables or passages of the source.

What all share (assay): biochemical
Holding throughout (set-up): Eurofins KinaseProfiler full panel at Km ATP, residual kinase activity (%) relative to DMSO

Assay [1] concerns the target T1, SGK3(h) (Homo sapiens, UniProt Q96BR1).
T1 sequence (Q96BR1 1-496): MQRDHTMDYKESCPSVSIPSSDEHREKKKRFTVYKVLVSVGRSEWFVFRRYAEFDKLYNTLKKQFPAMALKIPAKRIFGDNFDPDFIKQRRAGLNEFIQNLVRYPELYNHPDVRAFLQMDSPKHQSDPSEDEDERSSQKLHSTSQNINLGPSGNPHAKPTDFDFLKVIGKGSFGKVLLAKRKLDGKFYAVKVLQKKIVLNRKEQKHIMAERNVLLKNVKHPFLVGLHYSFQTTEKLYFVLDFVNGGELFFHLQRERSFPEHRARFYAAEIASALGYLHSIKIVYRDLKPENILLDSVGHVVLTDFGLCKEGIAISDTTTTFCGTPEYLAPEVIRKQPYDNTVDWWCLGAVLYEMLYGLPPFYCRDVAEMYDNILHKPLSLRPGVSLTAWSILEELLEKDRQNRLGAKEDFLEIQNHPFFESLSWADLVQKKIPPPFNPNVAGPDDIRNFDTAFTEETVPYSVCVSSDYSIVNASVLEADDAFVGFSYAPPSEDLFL
In short, it runs like this:
(§1)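 Compounds screened at 10 µM in radiometric kinase activity assays at Km ATP, reported as remaining kinase activity (%). A KINOMEscan competition-binding screen at 10 µM measured DNA-tagged kinase retained on immobilized active-site ligand by qPCR.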

Assay [2] has as its target T2, DRAK1(h) (Homo sapiens, UniProt Q9UEE5).
T2 construct: gene STK17A
T2 sequence (Q9UEE5 1-414): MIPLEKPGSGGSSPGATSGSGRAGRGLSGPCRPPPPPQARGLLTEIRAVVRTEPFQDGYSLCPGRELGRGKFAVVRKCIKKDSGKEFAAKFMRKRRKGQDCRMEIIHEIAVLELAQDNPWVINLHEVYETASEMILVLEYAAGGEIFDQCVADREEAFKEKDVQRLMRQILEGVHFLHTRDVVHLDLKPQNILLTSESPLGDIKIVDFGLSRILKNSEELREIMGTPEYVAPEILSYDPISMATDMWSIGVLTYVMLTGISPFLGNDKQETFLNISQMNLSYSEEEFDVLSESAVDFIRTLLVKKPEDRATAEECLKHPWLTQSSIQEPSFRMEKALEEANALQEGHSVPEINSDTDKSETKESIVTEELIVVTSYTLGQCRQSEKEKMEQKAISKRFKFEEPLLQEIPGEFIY
In short, it runs like this: as §1

Assay [3] addresses T3, GRK3(h) (Homo sapiens, UniProt P35626).
T3 sequence (P35626 1-688): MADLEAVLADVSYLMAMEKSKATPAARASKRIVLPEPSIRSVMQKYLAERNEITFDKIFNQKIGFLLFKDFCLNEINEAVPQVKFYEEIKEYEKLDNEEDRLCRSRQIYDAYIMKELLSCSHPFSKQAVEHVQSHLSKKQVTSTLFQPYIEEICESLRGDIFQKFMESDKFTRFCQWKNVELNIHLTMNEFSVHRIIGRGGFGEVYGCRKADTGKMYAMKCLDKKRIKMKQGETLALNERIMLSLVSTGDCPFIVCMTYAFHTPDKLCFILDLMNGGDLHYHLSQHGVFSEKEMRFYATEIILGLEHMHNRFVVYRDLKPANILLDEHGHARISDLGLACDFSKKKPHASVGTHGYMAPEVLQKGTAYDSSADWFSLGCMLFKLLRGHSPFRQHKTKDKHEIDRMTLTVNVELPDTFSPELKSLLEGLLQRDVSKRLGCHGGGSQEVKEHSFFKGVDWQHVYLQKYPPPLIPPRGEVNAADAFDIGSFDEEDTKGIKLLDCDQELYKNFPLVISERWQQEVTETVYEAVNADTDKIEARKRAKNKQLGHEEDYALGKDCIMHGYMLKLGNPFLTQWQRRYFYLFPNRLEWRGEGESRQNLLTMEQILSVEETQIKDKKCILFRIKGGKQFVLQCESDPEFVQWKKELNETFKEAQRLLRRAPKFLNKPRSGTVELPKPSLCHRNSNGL
In short, it runs like this:
as §1

The target of assay [4] is CDKL4(h) (Homo sapiens, UniProt Q5MAI5). The method, boiled down:
as §1

The target of assay [5] is T4, GCN2(h) (Homo sapiens, UniProt Q9P2K8).
T4 construct: gene EIF2AK4
T4 sequence (Q9P2K8 whole entry): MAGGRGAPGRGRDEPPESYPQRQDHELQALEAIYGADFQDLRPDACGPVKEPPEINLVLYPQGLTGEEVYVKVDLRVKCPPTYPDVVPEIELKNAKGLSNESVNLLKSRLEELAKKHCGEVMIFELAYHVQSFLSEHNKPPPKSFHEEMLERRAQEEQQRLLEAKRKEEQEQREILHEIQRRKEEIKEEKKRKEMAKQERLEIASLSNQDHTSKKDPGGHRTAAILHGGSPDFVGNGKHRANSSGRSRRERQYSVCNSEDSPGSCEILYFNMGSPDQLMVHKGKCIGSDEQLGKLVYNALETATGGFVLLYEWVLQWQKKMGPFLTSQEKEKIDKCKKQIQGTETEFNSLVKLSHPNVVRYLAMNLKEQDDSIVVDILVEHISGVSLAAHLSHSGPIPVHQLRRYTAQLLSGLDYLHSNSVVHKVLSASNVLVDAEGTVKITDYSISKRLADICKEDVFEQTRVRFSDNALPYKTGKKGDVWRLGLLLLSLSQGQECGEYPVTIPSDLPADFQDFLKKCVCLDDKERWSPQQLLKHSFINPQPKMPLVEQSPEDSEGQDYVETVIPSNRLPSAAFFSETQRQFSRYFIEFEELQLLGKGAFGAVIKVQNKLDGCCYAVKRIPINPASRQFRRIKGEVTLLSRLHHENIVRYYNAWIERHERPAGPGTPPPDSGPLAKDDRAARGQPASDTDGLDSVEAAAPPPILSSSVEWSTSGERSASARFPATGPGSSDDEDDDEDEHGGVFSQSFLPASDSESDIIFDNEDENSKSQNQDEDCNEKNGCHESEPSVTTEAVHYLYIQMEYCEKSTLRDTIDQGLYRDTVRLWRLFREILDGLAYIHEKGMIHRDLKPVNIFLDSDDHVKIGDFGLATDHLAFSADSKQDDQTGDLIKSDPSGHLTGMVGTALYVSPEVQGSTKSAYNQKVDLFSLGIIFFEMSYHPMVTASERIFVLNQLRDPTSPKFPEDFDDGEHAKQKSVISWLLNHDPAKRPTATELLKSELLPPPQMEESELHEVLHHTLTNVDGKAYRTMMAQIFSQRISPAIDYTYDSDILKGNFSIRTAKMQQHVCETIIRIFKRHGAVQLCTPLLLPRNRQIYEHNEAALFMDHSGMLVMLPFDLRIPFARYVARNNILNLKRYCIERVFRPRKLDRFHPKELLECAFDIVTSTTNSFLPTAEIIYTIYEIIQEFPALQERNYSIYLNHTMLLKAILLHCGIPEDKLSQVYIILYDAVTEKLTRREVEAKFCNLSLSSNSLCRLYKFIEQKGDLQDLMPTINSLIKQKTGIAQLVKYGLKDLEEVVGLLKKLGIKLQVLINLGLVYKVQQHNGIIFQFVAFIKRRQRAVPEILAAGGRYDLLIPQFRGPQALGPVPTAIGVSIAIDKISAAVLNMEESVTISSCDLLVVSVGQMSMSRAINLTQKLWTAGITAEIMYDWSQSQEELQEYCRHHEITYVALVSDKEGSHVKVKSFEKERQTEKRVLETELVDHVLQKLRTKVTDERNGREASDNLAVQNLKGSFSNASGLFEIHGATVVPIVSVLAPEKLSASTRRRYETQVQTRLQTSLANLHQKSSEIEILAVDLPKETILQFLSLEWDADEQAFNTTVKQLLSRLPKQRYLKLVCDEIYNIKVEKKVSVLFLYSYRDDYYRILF
In short, it runs like this:
as §1

Assay [6] has as its target CDK3/cyclinE(h) (Homo sapiens, UniProt Q00526). The method, boiled down:
as §1

[7] abbreviates: read-out: Residual activity (%) 5at.
Where [8] appears, read: read-out: Residual activity (%) 5ay.
Setting [9] is: read-out: Residual activity (%) 5as.
[10] abbreviates: read-out: Residual activity (%) Spautin-1 5aa.

CDK3/cyclinE(h), sequence (Q00526 whole entry): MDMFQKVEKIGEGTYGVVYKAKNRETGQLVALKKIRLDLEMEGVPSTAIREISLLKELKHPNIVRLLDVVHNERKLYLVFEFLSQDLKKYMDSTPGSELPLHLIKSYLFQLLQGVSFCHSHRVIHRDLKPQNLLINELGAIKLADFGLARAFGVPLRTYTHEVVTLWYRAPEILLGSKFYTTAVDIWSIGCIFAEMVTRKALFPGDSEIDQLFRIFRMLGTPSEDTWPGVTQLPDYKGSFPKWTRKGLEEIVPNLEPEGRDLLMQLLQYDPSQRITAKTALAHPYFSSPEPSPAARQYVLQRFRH
CDK3/cyclinE(h), sequence (P24864 whole entry partner): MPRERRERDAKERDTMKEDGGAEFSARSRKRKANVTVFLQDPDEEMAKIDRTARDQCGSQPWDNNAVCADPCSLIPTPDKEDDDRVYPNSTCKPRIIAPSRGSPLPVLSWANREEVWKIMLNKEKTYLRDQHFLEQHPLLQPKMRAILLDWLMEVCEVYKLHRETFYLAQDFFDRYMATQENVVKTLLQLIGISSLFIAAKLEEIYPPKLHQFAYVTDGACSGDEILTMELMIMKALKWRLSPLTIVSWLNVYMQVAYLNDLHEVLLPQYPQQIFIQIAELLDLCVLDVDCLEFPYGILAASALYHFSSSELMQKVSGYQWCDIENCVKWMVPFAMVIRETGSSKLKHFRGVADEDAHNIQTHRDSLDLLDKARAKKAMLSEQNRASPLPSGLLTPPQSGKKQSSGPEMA
CDKL4(h), sequence (Q5MAI5 whole entry): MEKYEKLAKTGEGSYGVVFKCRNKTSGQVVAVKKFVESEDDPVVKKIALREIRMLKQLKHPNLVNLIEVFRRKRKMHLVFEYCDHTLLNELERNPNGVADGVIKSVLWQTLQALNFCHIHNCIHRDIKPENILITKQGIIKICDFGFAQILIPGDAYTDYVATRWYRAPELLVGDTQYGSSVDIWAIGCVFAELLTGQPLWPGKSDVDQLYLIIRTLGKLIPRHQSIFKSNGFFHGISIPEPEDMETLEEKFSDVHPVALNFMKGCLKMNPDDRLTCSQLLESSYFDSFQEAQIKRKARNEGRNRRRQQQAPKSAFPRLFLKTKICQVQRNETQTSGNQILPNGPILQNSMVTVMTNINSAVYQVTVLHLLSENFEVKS

For the molecule `Fc1ccc2ncnc(NCCc3ccc(Cl)cc3)c2c1` [5at, N-[2-(4-Chlorophenyl)Ethyl]-6-Fluoro-4-Quinazolinamine], the remaining activity at 10 µM was 93% in assay [1] (setting [7]); 85% in assay [2] (setting [7]); 97% in assay [3] (setting [7]); 92% in assay [4] (setting [7]); 97% in assay [5] (setting [7]); 107% in assay [6] (setting [7]).
Take `COc1ccc2ncnc(Nc3cccc(F)c3)c2c1` [5ay, N-(3-Fluorophenyl)-6-Methoxy-4-Quinazolinamine]: the remaining activity at 10 µM in assay [1] (setting [8]) was determined as 91%; in assay [2] (setting [8]), 57%; in assay [3] (setting [8]), 93%; in assay [4] (setting [8]) it was 38%; in assay [5] (setting [8]), 83%; in assay [6] (setting [8]), 101%.
`Fc1ccc(CCNc2ncnc3ccc(F)cc23)cc1` [5as, 6-Fluoro-N-[2-(4-Fluorophenyl)Ethyl]-4-Quinazolinamine]: the remaining activity at 10 µM in assay [1] (setting [9]) is 88%; in assay [2] (setting [9]), 79%; in assay [3] (setting [9]) it was 92%; in assay [4] (setting [9]), 94%; in assay [5] (setting [9]) it was 85%; in assay [6] (setting [9]), 105%.
In the case of `Fc1ccc(CNc2ncnc3ccc(F)cc23)cc1` [5aa, 6-Fluoro-N-(4-fluorobenzyl)-4-Quinazolinamine], the remaining activity at 10 µM was 95% in assay [1] (setting [10]); 98% in assay [2] (setting [10]); 95% in assay [3] (setting [10]); 73% in assay [4] (setting [10]); 85% in assay [5] (setting [10]); 93% in assay [6] (setting [10]).

These data come from paper PMC7827406, “Structure–Activity Relationship (SAR) Study of Spautin-1 to Entail the Discovery of Novel NEK4 Inhibitors” (International Journal of Molecular Sciences, 2021).
